Laboratory results published in patent US10188601B2, “Continuous long-term controlled release of telomerase inhibitors” (priority 2013, dated 2019).

Key:
[1] = system: cellular DNA
Experimental: PdTMPyP4 was dissolved directly into medium as described above. After incubation with graded concentrations of PdTMPyp4 added to the medium for 24 or 48 h, the DNA was extracted and digested. […] Details of the methods used to extract the DNA fraction and prepare the samples for ICP-MS are given in Laster B H, et al. Brachytherapy. 2009; 8:324-30.

[2] = system: telomerase; conditions: L428 cells, 24 h incubation, graded concentrations; Pd tag versus H2 tag
Experimental: L428 cells were incubated for 24 h with graded concentrations of PdTMPyP4 or H2TMPyP4 dissolved in RPMI 1640 complete medium. The activation or inhibition of telomerase was measured using the Telomeric Repeat Amplification Protocol (TRAP) assay. The procedure is detailed in Tichon A, et al, Cytotherapy. 2009; 11:837-48.

[3] = single rod per tumor
Excerpt: One PdTMPyP4 rod, prepared according to the Example 1, was implanted into the KHJJ tumor of each of 4 mice as described in the Example 7 above.
Blood was withdrawn from the junction of the submandibular/facial vein, centrifuged, and the clear supernatant removed, diluted 1:100 and measured in double-distilled water (DDW) as described in the Example 10 below.

[4] = In vitro release of PdTMPyP4 from PLGA rods over time in normal saline; assay type: physicochemical
Experimental: Eight rods, two each of matching weights, were placed in individual Eppendorf tubes with 1 ml of normal saline and incubated at 37° C. For measuring PdTMPyP4 release via absorbance, a 10 μl sample were removed and diluted 1:100 with DDW, and absorbance of the resulting solution measured in the spectrophotometer at 415 nm for the first 28 days. […] The removal of a 10 μl sample from the fresh saline solution required a 1:10 dilution in DDW for appropriate reading. […] To compare the release of PdTMPyP4 after the various dilutions, the concentrations were normalized to the dilution factor used during the first 28 days (1:100).

[5] = system: L428 Hodgkin's lymphoma cells
Excerpt: In these experiments, PdTMPyP4/PLGA rods, manufactured as described in the Example 1, were used to release and maintain the continuous exposure of exponentially-growing L428 Hodgkin's Lymphoma cells to PdTMPyP4 throughout the 8 day experiment. To maintain and encourage exponential growth, cells were split before they neared their maximum density 1.5×10^6 cells/ml. Precautions were taken, in advance, to prevent the dilution of the drug during cell splitting by placing the rods into the medium that would be used when splits were required. Cells were initially seeded into each of 3 different treatment flasks at a cell density of 3.0×10^5 cells/ml in a volume of 25 ml. The cultures were split at 120 and 192 hours. The flasks consisted of:
Fourteen ‘medium-transfer’ flasks were prepared in advance for use during the splitting of the flasks. Twelve (6 each) of these contained 25 ml of complete medium and either 2 PdTMPyP4/PLGA rods or 2 blank PLGA rods.
Two additional flasks contained 25 ml conditioned medium were prepared in advance, by removing from previously grown cells and sterilizing, and whereto either PdTMPyP4/PLGA or 2 PLGA rods were added. This approach permitted the same exponential growth conditions for all treatments even when the flasks were split.
When cells in either flask A, B, or C neared their maximum cell density and required splitting, all flasks were split at this same time and medium from the transfer flasks was added to both the original and new flasks to restore the volume to 25 ml. A 3-ml aliquot of cells was removed from the flasks containing the suspension cells and was counted on a daily basis using a hemocytometer and trypan blue exclusion. The volume removed was replaced with the pretreated medium. […] Cells in each of the split dishes were counted, and counts from all flasks were combined to yield the total number of cells. By combining the cell counts from the split flasks, and using the total cell number, technical errors in counting the cells from the different flasks were reduced.

**Q.** For `C[n+]1ccc(-c2c3nc(c(-c4cc[n+](C)cc4)c4ccc([n-]4)c(-c4cc[n+](C)cc4)c4nc(c(-c5cc[n+](C)cc5)c5ccc2[n-]5)C=C4)C=C3)cc1.[Pd+2]` [PdTMPyP4, Palladium-tagged tetra (4-N-methylpyridyl) porphyrin], which “effect of Pd tag on DNA uptake of the porphyrin” value ([1]; compared with naive TMPyP4) is on record?
**A.** does not alter DNA uptake

**Q.** And the “uptake in DNA converted to moles” value ([1]; incubation 24 or 48 h with graded concentrations)?
**A.** about 1.7×10^−14 mol

**Q.** What about the “measured uptake of Pd atoms in the DNA of the cell” value ([1]; incubation 24 or 48 h with graded concentrations, ICP-MS) of the same compound?
**A.** about 10^9 Pd atoms

**Q.** And the telomerase activity inhibition [2]?
**A.** superior inhibition

**Q.** And the “plasma levels by the second and third week” value [3]?
**A.** restoration of plasma levels to that on day 0

**Q.** And the “PdTMPyP4 concentration in blood plasma” value ([3]; four mice, weekly measurements)?
**A.** negligible concentrations

**Q.** What about the “duration of gradual and continuous release” value [4] of the same compound?
**A.** > 30 days

**Q.** And the “time of sudden decrease in cells exposed” value ([5]; 19-day experiment, continuous release from PLGA rods)?
**A.** about 200 h

**Q.** And the “factor by which cell number was lower than with the other treatments” value ([5]; 19-day experiment, from about 200 h through remaining 11 days)?
**A.** 5-6 times

**Q.** And the “cell number compared to the other treatments at end of experiment” value ([5]; 8 day experiment, 264 h, versus untreated and blank PLGA)?
**A.** lower

**Q.** What about the “time to L428 cell lethality after telomerase inhibition” value ([5]; continuous exposure via rods) of the same compound?
**A.** about 8 days
